Measured values reported in US11298338B2, “Compositions and methods for cancer therapy” (UNIVERSITY OF IOWA RESEARCH FOUNDATION, priority 2016, dated 2022).
“Also recorded” adds a separate entry of the source.

Legend:
OCI-MY5 cells = experiment: OCI-MY5 cell viability after 1 hr PAA treatment; type: cell-based, human; conditions: for effect of pre-treatment on PAA-induced cell death: OCI-MY5, catalase 100 U/ml, NAC 15 mM, DFO 200 μM or BCS 10 μM for 3 hrs before PAA, viability 24 hrs later
Method: FIGS. 2A-2D. […] OCI-MY5 EV (FIG. 2C) and OCI-MY5 OE-Fpn1 (FIG. 2D) were incubated with or without iron (Fe-NTA (FE), 100 μM).
(§1) FIGS. 4A-4E. […] (FIG. 4A) Top bar graph represents OCI-MY5 shRNA-Scramble and shRNA-AIF1 cells incubated with doxycycline to knockdown AIF1 for 2 days. Bottom bar graph represents OCI-MY5 EV and OCI-MY5 OE-AIF1 cells. […] Knockdown and overexpression of AIF1 was confirmed by western blots. […] AIF1, β-actin and γ-H2AX levels were analyzed by western blots. […] AIF1 and β-actin levels were analyzed by western blots. […] N, M, C respectively represent nucleus, mitochondria and cytoplasm. Blue arrows indicate the nuclear membrane and red arrowheads indicate AIF1 gold beads in cytoplasm or mitochondria. Black arrowheads indicate AIF1 gold beads in nuclei.
FIGS. 9A-9B. […] (FIG. 9B) Total RNA was extracted from OCI-MY5 EV and OE cells and Fpn1 mRNA was analyzed by Real time RT-PCR.
Human myeloma cell lines (ARP1, OCI-MY5 and their derivative cell lines) were cultured in RPMI 1640 (Invitrogen, Carlsbad, Calif.), supplemented with 10% heat-inactivated FBS (Invitrogen), penicillin (100 IU/mL), and streptomycin (100 μg/mL) in a humidified incubator at 37° C. and 5% CO2/95% air. To increase cellular iron concentration, ferric nitrilotriacatate (Fe-NTA) was used.

γ-H2AX = experiment: Western blot of phosphorylated γ-H2AX in OCI-MY5 cells; type: cell-based, human; conditions: OCI-MY5 (FIG. 4C); melphalan alone at high dose, with PAA at lower dose
Method: as §1
(§2) Cells were harvested and lysed with lysis buffer: 150 mM NaCl, 10 mM EDTA, 10 mM Tris, pH 7.4, 1% X-100 Triton. Cell lysates were subjected to SDS-PAGE, transferred onto a pure nitrocellulose membrane (BioRad), and blocked with 5% fat-free milk. […] Membranes were incubated with horseradish peroxidase (HRP)-conjugated anti-mouse secondary antibody (1:10,000, Santa Cruz Biotechnology, cat #: sc-2005) or anti-rabbit secondary antibody (1:10,000, AnaSpec Inc., cat #: AS-28177) for 1 h and chemi-luminescence signals were detected by HRP substrate (EMD Millipore).

AIF1 [1] = experiment: AIF1 immunolabeling electron microscopy in OCI-MY5 cells; type: cell-based, human; conditions: OCI-MY5, PAA 2 mM (FIG. 4E)
Method: as §1
(§3) Electron microscopy was performed by the Central Microscopy Research Facility personnel at the University of Iowa. Images were captured on JEOL JEM 1230.

CD138+ MM cells = experiment: Pharmacological Ascorbic Acid viability assay (Trypan Blue), CD138+ cells from patients; type: cell-based, human
Method: CD138^+ MM cells and CD138^− non-MM cells were isolated from MGUS, SMM, and MM patient samples using anti-CD138 immunomagnetic beads (Miltenyl Biotec, Auburn, Calif.). […] After incubation, the cells were washed and cultured up to 24 h. Cell counts and viable cell number were determined using Trypan Blue staining.

caspases 3, 8, and 9 = experiment: Western blot of caspases in OCI-MY5 WT cells; type: cell-based, human; conditions: OCI-MY5 WT after PAA (FIG. 3B)
Method: (§4) FIGS. 3A-3B. […] Red boxes represent zooming image of mitochondria in OCI-MY5 WT cells (left) and OCI-MY5 WT cells treated with PA (right).
(§5) Cells were harvested and lysed with lysis buffer: 150 mM NaCl, 10 mM EDTA, 10 mM Tris, pH 7.4, 1% X-100 Triton. Cell lysates were subjected to SDS-PAGE, transferred onto a pure nitrocellulose membrane (BioRad), and blocked with 5% fat-free milk. Primary antibodies for immunoblotting included: anti-AIF1 (1:1000, Cell Signaling), anti-RIP (1:1000, Santa Cruz Biotechnology), anti-RIP3 (1:1000, Cell Signaling), anti-Caspase3 (1:1000, Cell Signaling), anti-Caspase 8 (1:1000, Cell Signaling), anti-Caspase 9 (1:1000, Cell Signaling) Phosphorylated γH2AX (1:1000, Enzo Life Sciences), and β-actin (1:1000, Cell Signaling) as loading control. Membranes were incubated with horseradish peroxidase (HRP)-conjugated anti-mouse secondary antibody (1:10,000, Santa Cruz Biotechnology, cat #: sc-2005) or anti-rabbit secondary antibody (1:10,000, AnaSpec Inc., cat #: AS-28177) for 1 h and chemi-luminescence signals were detected by HRP substrate (EMD Millipore).

[2] = intraperitoneal administration of 4 g ascorbate per kilogram of body weight; cited from earlier work
[3] = cited from earlier work
[4] = test system: ARP1 MM cells with TRIP13 overexpression; experiment: Cell viability of ARP1 cells with TRIP13-OE or EV under drug treatment; type: cell-based, human; conditions: for response of TRIP13-OE ARP1 cells to drug: ARP1-OE vs ARP1-EV, different doses (FIGS. 37A, 37B)
OCI-MY5 WT cells = experiment: Transmission electron microscopy of PAA-treated OCI-MY5 WT cells; type: cell-based, human; conditions: 4 mM PAA one hour, fixed after 60 and 120 min
Method: as §4, §3

AIF1 [5] = experiment: Western blot of AIF1 cleavage in OCI-MY5 cells; type: cell-based, human; conditions: OCI-MY5 cells (FIG. 4C); melphalan 0-80 μM 4 hrs
Method: as §1, §2

ARP1 MM cells = experiment: Human myeloma xenograft mice, tumor burden by IVIS and survival; type: in vivo, NOD.Cγ-Rag1 mice; conditions: for MM cell growth (tumor burden) compared to the control group: p<0.05, melphalan, carfilzomib, bortezomib 3 mg/kg, 3 weeks
Method: NOD.Cγ-Rag1 mice 6-8 weeks old (Jackson laboratory, Bar Harbor, Me.) were injected intravenously with ARP1 MM cells (1×10^6) expressing luciferase. […] Bortezomib (3 mg/kg) was injected intraperitoneal once a day, 2 days a week for 3 weeks. The mice were euthanized when humane endpoint was reached.
Xenogen IVIS-200 an in vivo imaging system (IVIS) was used to analyze tumor burden and was indicated by quantification of luciferase intensity of mice pre- and post-treatments.
GEP data were analyzed by One-Way Anova test using log 2 transformed Affymetrix Signals and presented by boxplot. The comparisons of tumor burden were analyzed either by student t-test (2 groups) or by One-Way Anova test (>2 groups). Kaplan-Meier method was performed for survival with the use of SPSS 16.0 software (SPSS, Chicago, Ill.). Two-tailed p value at an alpha level of 0.05 was considered to indicate statistical significance. Graphs were generated using Prism 6 software.

AIF1 [6] = experiment: Western blot of nuclear AIF1 in ARP1 MM cell line; type: cell-based, human; conditions: TRIP13N and TRIP13OE MM cells (FIG. 38D)
RIP1 and RIP3 = experiment: Western blot of RIP1 and RIP3 in OCI-MY5 WT cells; type: cell-based, human; conditions: OCI-MY5 WT after PAA (FIG. 3B)
Method: as §4, §5

CD138- non-MM cells = experiment: Pharmacological Ascorbic Acid viability assay (Trypan Blue), CD138- cells from patients; type: cell-based, human; conditions: CD138- BM cells from the same MM patients
Method: Pharmacological Ascorbic Acid (PAA) was kindly provided by Dr. Garry R. Buettner (University of Iowa). CD138^+ MM cells and CD138^− non-MM cells were isolated from MGUS, SMM, and MM patient samples using anti-CD138 immunomagnetic beads (Miltenyl Biotec, Auburn, Calif.). […] After incubation, the cells were washed and cultured up to 24 h. Cell counts and viable cell number were determined using Trypan Blue staining.

[7] = test system: KMS11, ARK and ARP1 cells; experiment: Erastin growth inhibition, PrestoBlue assay; type: cell-based, human; conditions: ferrostatin (Fer-1) 1 μM with 10 μM Erastin, 48 hours
Method: FIG. 23. Erastin Inhibits MM Cells Growth. KMS11, ARK and ARP1 cells were treated with 10 μM Erastin with or without ferrostatin (Fer-1) at 1 μM for 48 hours. Cell proliferation was measured by PrestoBlue assay and normalized to control cells to calculated growth inhibition.

O=C([O-])CN(CC(=O)[O-])CC(=O)[O-].[Fe+3] [Iron, ferric nitrilotriacatate]
cell viability after iron pre-treatment and PAA (OCI-MY5 cells; OCI-MY5 EV cells, Fe-NTA 100 μM 18 hrs (FIG. 2C)): rapid decrease in cells viability | cell viability after iron pre-treatment and PAA (OCI-MY5 cells; OCI-MY5 OE-Fpn1 cells, Fe-NTA 100 μM 18 hrs (FIG. 2D)): same effect

CC(=O)N[C@@H](CS)C(=O)O [NAC, N-acetyl cysteine]
effect of pre-treatment on PAA-induced cell death (OCI-MY5 cells): resistant to PAA

O=C1O[C@H]([C@@H](O)CO)C(O)=C1O [PAA, ascorbic acid]
phosphorylated γ-H2AX level (γ-H2AX): induced γ-H2AX | viability after PAA treatment, AIF1-shRNA cells versus scrambled sequence (OCI-MY5 cells; OCI-MY5 AIF1-shRNA (FIG. 4A top)): significantly higher | PAA concentration able to kill cells (OCI-MY5 cells; OCI-MY5 EV cells): 4 mM | viability after PAA treatment, OE-AIF1 cells versus empty vector (OCI-MY5 cells; OCI-MY5 OE-AIF1 (FIG. 4A bottom)): significantly less viability | PAA concentration required to successfully kill cells (OCI-MY5 cells; OCI-MY5 OE-Fpn1 cells): 20 mM | cellular localization of AIF1 (AIF1 [1]): also in cytoplasm and nuclei | response to PAA of CD138+ cells from MGUS patients (CD138+ MM cells; 2 MGUS patients (FIG. 1C)): almost no response | survival of CD138+ cells in vitro following PAA treatment (CD138+ MM cells; CD138+ cells from MM patients, PAA 1 hr, washed, cultured up to 24 h): significantly decreased; also recorded: increased killing | effect of PAA on cell viability in SMM patients (CD138+ MM cells; cells from SMM patients (FIG. 1B)): same effect | caspases 3, 8, and 9 activity (cleavage) (caspases 3, 8, and 9): marked increase | levels of ascorbate [2]: 20000 to 40000 µM | levels of ascorbyl radicals [2]: 0.5 µM | safety and tolerability ([3]; IV, animals and humans): safe and well tolerated | plasma concentrations from pharmacological doses ([3]; intravenous (IV) administration): ≥ 10 mM | response of TRIP13-OE ARP1 cells to drug [4]: sensitive | type of cell death by TEM (OCI-MY5 WT cells): early necrosis (FIG. 3A, 60 mins) followed by late apoptosis | AIF1 cleavage by western blotting (AIF1 [5]): increase in the AIF1 cleaved form | MM cell growth (tumor burden) compared to the control group (ARP1 MM cells; FIG. 1D, PAA 4 mg/kg): inhibited MM cell growth significantly | tumor burden with PAA in mice receiving iron chelator DFO at the same time (ARP1 MM cells; PAA 4 mg/kg IP once a day, DFO 100 mg/Kg twice a week IP (FIG. 25)): not able to decrease tumor burden | tumor progression by IVIS (ARP1 MM cells; PAA 4 mg/kg, once per day, IP, 15 days vs saline): significantly delayed | AIF1 nuclear translocation (AIF1 [6]): induces AIF1 nuclear translocation | RIP1 and RIP3 cleavage (RIP1 and RIP3): cleaved | cell viability of CD138- BM cells following PAA treatment (CD138- non-MM cells): no significant change

CC(C)C[C@H](NC(=O)[C@H](Cc1ccccc1)NC(=O)c1cnccn1)B(O)O [bortezomib]
growth inhibition in TRIP13-OE MM cells compared with EV controls ([4]; ARP1, 24 h, p<0.05 (FIGS. 27E, 27F)): significantly less growth inhibition | response of TRIP13-OE ARP1 cells to drug [4]: resistant | MM cell growth (tumor burden) compared to the control group (ARP1 MM cells; FIG. 1D, PAA 4 mg/kg): inhibited MM cell growth significantly | AIF1 nuclear translocation (AIF1 [6]): does not increase AIF1 nuclear localization

CC(C)C[C@H](NC(=O)[C@H](CCc1ccccc1)NC(=O)CN1CCOCC1)C(=O)N[C@@H](Cc1ccccc1)C(=O)N[C@@H](CC(C)C)C(=O)[C@@]1(C)CO1 [carfilzomib]
MM cell growth (tumor burden) compared to the control group (ARP1 MM cells; FIG. 1D, PAA 4 mg/kg): inhibited MM cell growth significantly

CCOC(=O)c1ccc(NC2CCCCC2)c(N)c1 [ferrostatin]
effect of ferroptosis inhibitor on erastin growth inhibition [7]: can be reversed

N[C@@H](Cc1ccc(N(CCCl)CCCl)cc1)C(=O)O [melphalan]
phosphorylated γ-H2AX level (γ-H2AX): induced γ-H2AX | AIF1 cleavage by western blotting (AIF1 [5]): not able to induce AIF1 cleavage | MM cell growth (tumor burden) compared to the control group (ARP1 MM cells; FIG. 1D, PAA 4 mg/kg): inhibited MM cell growth significantly | tumor burden compared among treatments (ARP1 MM cells; FIG. 1D, single agents vs combination): higher decrease in tumor burden | time at which presence of tumor was detected (ARP1 MM cells; highest dose of melphalan, single agent): only after four weeks | tumor burden at three weeks of treatment (ARP1 MM cells; melphalan 1, 3, 5 mg/kg with or without PAA (FIGS. 1E, 1F)): inhibit tumor growth better than PAA alone | MM mouse survival, compared with PAA alone (ARP1 MM cells; single agent melphalan 3 and 5 mg/kg (FIG. 1G)): extended MM mouse survival

bathocuproinedisulfonic acid disodium salt [BCS]
effect of pre-treatment on PAA-induced cell death (OCI-MY5 cells): not able to block cellular death

catalase
effect of pre-treatment on PAA-induced cell death (OCI-MY5 cells): resistant to PAA
